The experiment concerns P388 leukemia ip, CD2F1 mice, survival T/C. Put plainly: NCI In Vivo Anticancer Drug Screen. Data for tumor model P388 Leukemia (intraperitoneal) in CD2F1 (CDF1) mice. The following applies: endpoint: median survival time, higher = longer survival. In short, it runs like this: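 Mice carrying the transplanted tumor received test compound or vehicle. Survival was recorded in each group, and the value is the treated-group measurement divided by that of the vehicle-treated control group.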

Where [1] appears, read: dose: 50.0 mg/kg/injection, schedule: Q01DX005 (ip), vehicle: Klucel (hydroxypropylcellulose) (HPC).
The mark [2] stands for this setting: dose: 100.0 mg/kg/injection, schedule: Q01DX005 (ip), vehicle: Klucel (hydroxypropylcellulose) (HPC).
Setting [3] is: dose: 60.0 mg/kg/injection, schedule: Q01DX005 (ip), vehicle: saline with Tween-80.
Where [4] appears, read: dose: 50.0 mg/kg/injection, schedule: Q01DX009 (ip), vehicle: saline with Tween-80.
Setting [5] is: dose: 100.0 mg/kg/injection, schedule: Q01DX009 (ip), vehicle: saline with Tween-80.
Where [6] appears, read: dose: 50.0 mg/kg/injection, schedule: Q01DX009 (ip), vehicle: Klucel (hydroxypropylcellulose) (HPC).
Where [7] appears, read: dose: 100.0 mg/kg/injection, schedule: Q01DX009 (ip), vehicle: Klucel (hydroxypropylcellulose) (HPC).
The mark [8] stands for this setting: dose: 200.0 mg/kg/injection, schedule: Q01DX009 (ip), vehicle: Klucel (hydroxypropylcellulose) (HPC).
Where [9] appears, read: dose: 100.0 mg/kg/injection, schedule: Q04DX003 (ip), vehicle: saline with Tween-80.
[10] abbreviates: dose: 200.0 mg/kg/injection, schedule: Q01DX009 (ip), vehicle: saline with Tween-80.
The mark [11] stands for this setting: dose: 25.0 mg/kg/injection, schedule: Q01DX005 (ip), vehicle: Klucel (hydroxypropylcellulose) (HPC).
[12] abbreviates: dose: 50.0 mg/kg/injection, schedule: Q01DX005 (ip), vehicle: saline with Tween-80.
The mark [13] stands for this setting: dose: 100.0 mg/kg/injection, schedule: Q01DX005 (ip), vehicle: saline with Tween-80.
[14] abbreviates: dose: 200.0 mg/kg/injection, schedule: Q01DX005 (ip), vehicle: saline with Tween-80.
[15] abbreviates: dose: 100.0 mg/kg/injection, schedule: Q04DX003 (ip), vehicle: Klucel (hydroxypropylcellulose) (HPC).
Setting [16] is: dose: 200.0 mg/kg/injection, schedule: Q04DX003 (ip), vehicle: Klucel (hydroxypropylcellulose) (HPC).
The mark [17] stands for this setting: dose: 400.0 mg/kg/injection, schedule: Q04DX003 (ip), vehicle: Klucel (hydroxypropylcellulose) (HPC).
The mark [18] stands for this setting: dose: 120.0 mg/kg/injection, schedule: Q01DX005 (ip), vehicle: saline with Tween-80.
Where [19] appears, read: dose: 240.0 mg/kg/injection, schedule: Q01DX005 (ip), vehicle: saline with Tween-80.
The mark [20] stands for this setting: dose: 25.0 mg/kg/injection, schedule: Q01DX009 (ip), vehicle: Klucel (hydroxypropylcellulose) (HPC).

Several values for one entry are separate records, joined by “and”; a condition that tells them apart may be missing. Equal entries are not always repeated. Inconclusive results and toxic doses are left out. Peptide text beside a SMILES is read from it. * marks the point of attachment. Cbz = O=C(OCc1ccccc1)*

Consider `Cc1ccc(S(=O)(=O)C(=S)SCc2ccccc2)cc1`, for which the T/C by setting is: under setting [1], 106 % of control; under setting [2], 105 % of control; (dose: 200.0 mg/kg/injection, schedule: Q01DX005 (ip), vehicle: Klucel (hydroxypropylcellulose) (HPC)) 96 % of control.
As to `Cc1ccc(S(=O)(O)=S)cc1`, the T/C runs as follows: (dose: 50.0 mg/kg/injection, schedule: Q01DX009 (ip), vehicle: saline) 101 % of control; (dose: 100.0 mg/kg/injection, schedule: Q01DX009 (ip), vehicle: saline) 107 % of control; (dose: 100.0 mg/kg/injection, schedule: Q04DX002 (ip), vehicle: saline) 105 % of control; (dose: 200.0 mg/kg/injection, schedule: Q01DX009 (ip), vehicle: saline) 115 % of control; (dose: 200.0 mg/kg/injection, schedule: Q04DX002 (ip), vehicle: saline) 101 % of control; (dose: 400.0 mg/kg/injection, schedule: Q04DX002 (ip), vehicle: saline) 102 % of control.
In the case of `CC1(C)N=c2cc3c(cc2N1c1ccc(Cl)cc1)=Nc1ccccc1N3c1ccc(Cl)cc1`, the T/C is, setting by setting: (dose: 7.5 mg/kg/injection, schedule: Q01DX005 (ip), vehicle: saline with Tween-80) 99 % of control; (dose: 15.0 mg/kg/injection, schedule: Q01DX005 (ip), vehicle: saline with Tween-80) 90 % of control; (dose: 30.0 mg/kg/injection, schedule: Q01DX005 (ip), vehicle: saline with Tween-80) 87 % of control; under setting [3], 89 % of control.
Turning to `CC(C)(C=O)COC1OCN(C(C)(C)C)CC1(C)C` (stereo not given), the T/C runs as follows: under setting [4], 104 % of control; under setting [5], 122 % of control.
As to `S=C(N/N=C/c1ccc2c(c1)OCO2)NC1CCCCC1`, the T/C under setting [6] was 111 % of control, the T/C under setting [7] was 111 % of control and the T/C under setting [8] was 116 % of control.
As to `C[C@H]1C[C@@H]2[C@H]([C@@H](O)C[C@@]3(C)[C@H]2CC[C@]3(O)C(=O)CF)[C@@]2(C)C=CC(=O)C=C12`, the T/C by setting is: (dose: 10.0 mg/kg/injection, schedule: Q01DX009 (ip), vehicle: saline with Tween-80) 104 % of control; under setting [9], 100 % of control; under setting [10], 95 % of control; (dose: 200.0 mg/kg/injection, schedule: Q04DX003 (ip), vehicle: saline with Tween-80) 100 % of control; (dose: 400.0 mg/kg/injection, schedule: Q01DX009 (ip), vehicle: saline with Tween-80) 86 % of control; (dose: 400.0 mg/kg/injection, schedule: Q04DX003 (ip), vehicle: saline with Tween-80) 100 % of control.
Take `N#Cc1ccc[nH]c1=S`: the T/C was 95 % of control under setting [4], 102 % of control under setting [5] and 104 % of control under setting [10].
With `CCCCCCCCCCCCCS`, the T/C under setting [4] was 118 % of control and the T/C (dose: 132.0 mg/kg/injection, schedule: Q04DX003 (ip), vehicle: saline with Tween-80) is 104 % of control.
Regarding `COc1cc(C)c(/C=C/C(C)=C/c2cc(C)cc(=O)o2)c(C)c1C`, the T/C is 86 % of control under setting [11]; 88 % of control under setting [1]; 86 % of control and 92 % of control under setting [2].
On to `OC1COC(O)(CN2CCOCC2)C(O)C1O` (stereo not given), for which the T/C under setting [12] is 100 % of control, the T/C under setting [13] is 98 % of control and the T/C under setting [14] was 97 % of control.
Take `COc1cc2c(cc1OC)C1CC(=O)C(C3(O)C(=O)Nc4ccccc43)CN1CC2` (stereo not given): the T/C was 99 % of control under setting [15], 99 % of control under setting [16] and 112 % of control under setting [17].
Take `COC(=O)C1(CC(=O)CC(=O)CC2(C(=O)OC)NC(=S)NC(=O)C2C#N)NC(=S)NC(=O)C1C#N` (stereo not given): the T/C is 106 % of control under setting [3], 100 % of control under setting [18] and 100 % of control under setting [19].
On to `NNC(=O)N/N=C/c1ccccc1Cl`, for which the T/C runs as follows: under setting [11], 96 % of control; under setting [1], 112 % of control.
For the compound `Nc1cc(Nc2cccc(Cl)c2)nc(N)n1`, the T/C is, setting by setting: (dose: 50.0 mg/kg/injection, schedule: Q04DX003 (ip), vehicle: saline with Tween-80) 87 % of control; under setting [9], 91 % of control.
As to `CCNC(=O)OCc1c(COC(=O)NCC)c2n(c1C)CCc1ccccc1-2`, the T/C is 157 % of control and 185 % of control (dose: 12.5 mg/kg/injection, schedule: Q01DX009 (ip), vehicle: distilled water + Tween-80); 166 % of control (dose: 25.0 mg/kg/injection, schedule: Q01DX009 (ip), vehicle: distilled water + Tween-80).
`C=CC1CC(NC(=O)OCCCC)C(=O)O1` (stereo not given): the T/C reads like this: under setting [12], 99 % of control; under setting [13], 101 % of control; under setting [14], 102 % of control.
As for `COc1cc(=O)cc2n(c1=O)CCC2`, the T/C is 94 % of control (dose: 60.0 mg/kg/injection, schedule: Q01DX005 (ip), vehicle: saline); 94 % of control (dose: 120.0 mg/kg/injection, schedule: Q01DX005 (ip), vehicle: saline); 92 % of control (dose: 240.0 mg/kg/injection, schedule: Q01DX005 (ip), vehicle: saline).
For `CCOC(=O)CNC(=O)OCCS(=O)CCOC(=O)NCC(=O)OCC`, the T/C is 98 % of control (dose: 100.0 mg/kg/injection, schedule: Q01DX001 (ip), vehicle: saline); 93 % of control (dose: 200.0 mg/kg/injection, schedule: Q01DX001 (ip), vehicle: saline); 101 % of control (dose: 400.0 mg/kg/injection, schedule: Q01DX001 (ip), vehicle: saline).
In the case of `CC1=CC2C(=O)N(C)C1c1ccccc12` (stereo not given), the T/C is 100 % of control (dose: 100.0 mg/kg/injection, schedule: Q04DX002 (ip), vehicle: Klucel (hydroxypropylcellulose) (HPC)); 100 % of control (dose: 200.0 mg/kg/injection, schedule: Q04DX002 (ip), vehicle: Klucel (hydroxypropylcellulose) (HPC)); 97 % of control (dose: 400.0 mg/kg/injection, schedule: Q04DX002 (ip), vehicle: Klucel (hydroxypropylcellulose) (HPC)).
Regarding `CCC(C)C(=O)OC1CC2(C)C(c3ccoc3)OC(=O)CC23OC2(C)OC34C(OC(=O)C(C)C)C3(O)C(OC(=O)C5(C)OC5C)C5(C)CC3(O)C(C)(C5CC(=O)OC)C14O2` (stereo not given), the T/C under setting [20] was 93 % of control, the T/C under setting [6] was 104 % of control, the T/C under setting [7] is 102 % of control and the T/C under setting [8] was 99 % of control.
As to `CN(C)CC#N`, the T/C (dose: 5.0 mg/kg/injection, schedule: Q01DX009 (ip), vehicle: saline) was 104 % of control; the T/C (dose: 10.0 mg/kg/injection, schedule: Q01DX009 (ip), vehicle: saline) is 109 % of control; the T/C (dose: 20.0 mg/kg/injection, schedule: Q01DX009 (ip), vehicle: saline) was 109 % of control.
As to `COc1ccc(C(=O)/C=C/c2ccc3cc(OC)c(OC)cc3c2)cc1OC`, the T/C (dose: 3.13 mg/kg/injection, schedule: Q01DX009 (ip), vehicle: Klucel (hydroxypropylcellulose) (HPC)) is 103 % of control; the T/C (dose: 6.25 mg/kg/injection, schedule: Q01DX009 (ip), vehicle: Klucel (hydroxypropylcellulose) (HPC)) was 100 % of control; the T/C (dose: 12.5 mg/kg/injection, schedule: Q01DX009 (ip), vehicle: Klucel (hydroxypropylcellulose) (HPC)) was 106 % of control; the T/C under setting [20] is 106 % of control; the T/C under setting [6] was 98 % of control.
Regarding `O=C(NC(Cc1ccccc1)C(=O)N1CCCC1C(=O)O)OCc1ccccc1` (stereo not drawn) (Cbz-Phe-Pro-OH; configuration not given here), the T/C runs as follows: under setting [12], 95 % of control; under setting [13], 100 % of control; under setting [14], 97 % of control.
In the case of `COc1cc(C(NC(N)=O)c2cc3c(cc2O)OCO3)cc(OC)c1OC` (stereo not given), the T/C reads like this: under setting [3], 106 % of control; under setting [18], 102 % of control; under setting [19], 100 % of control.
Consider `COc1cc(C)c2c(c1OC)C(=O)OC2`, for which the T/C runs as follows: under setting [15], 98 % of control; under setting [16], 97 % of control; under setting [17], 98 % of control.

Source of the values: PubChem BioAssay AID330 (DTP/NCI, 2004).
